{"source": "patent US10689354B2", "about": "“Aminoazole derivative” (Teijin Pharma Limited, priority 2015, dated 2020)", "key": {"human androgen receptor": {"target": "T1, human androgen receptor (Homo sapiens, UniProt P10275)", "T1 construct": "expressed in transfected cells; host or cells: HEK293", "T1 sequence (P10275 1-920)": "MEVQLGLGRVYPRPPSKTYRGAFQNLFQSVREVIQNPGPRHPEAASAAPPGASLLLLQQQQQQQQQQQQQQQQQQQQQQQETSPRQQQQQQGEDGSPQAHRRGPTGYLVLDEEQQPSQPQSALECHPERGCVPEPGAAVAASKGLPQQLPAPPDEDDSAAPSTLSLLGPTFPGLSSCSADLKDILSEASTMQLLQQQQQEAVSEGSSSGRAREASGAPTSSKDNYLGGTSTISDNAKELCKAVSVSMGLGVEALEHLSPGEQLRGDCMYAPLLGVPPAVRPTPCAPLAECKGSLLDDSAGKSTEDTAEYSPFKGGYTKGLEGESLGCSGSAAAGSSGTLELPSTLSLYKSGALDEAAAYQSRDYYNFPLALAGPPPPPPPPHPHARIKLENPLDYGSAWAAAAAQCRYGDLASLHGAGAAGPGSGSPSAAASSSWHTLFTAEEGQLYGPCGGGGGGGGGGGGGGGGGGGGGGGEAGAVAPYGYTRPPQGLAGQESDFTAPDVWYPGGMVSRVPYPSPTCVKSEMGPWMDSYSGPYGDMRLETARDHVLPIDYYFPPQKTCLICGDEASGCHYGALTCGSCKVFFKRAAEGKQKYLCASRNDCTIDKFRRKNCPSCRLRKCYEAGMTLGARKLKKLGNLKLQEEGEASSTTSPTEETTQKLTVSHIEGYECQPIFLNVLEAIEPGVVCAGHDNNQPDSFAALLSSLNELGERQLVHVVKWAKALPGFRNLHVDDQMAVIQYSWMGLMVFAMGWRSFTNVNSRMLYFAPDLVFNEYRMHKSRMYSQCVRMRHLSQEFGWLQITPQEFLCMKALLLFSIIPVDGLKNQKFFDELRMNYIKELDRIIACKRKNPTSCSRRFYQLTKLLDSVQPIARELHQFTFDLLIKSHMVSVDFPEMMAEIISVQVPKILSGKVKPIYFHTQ", "experiment": "Reporter assay of an androgen receptor responsive sequence (luciferase, transiently transfected HEK293 cells)", "type": "cell-based", "conditions": "24 hours incubation, relative to activity of 100 nM DHT, read-out: AR transcriptive activity (pEC50) (converted)", "procedure,_shortened": "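Agonism scored as pEC50, fitted by 4-parameter curve against the response to 100 nM DHT, from dual-luciferase readout after 24 h compound treatment. Cells were HEK293 co-transfected (3 h) with human AR expression vector, androgen-responsive firefly reporter and Renilla control, in charcoal-stripped serum.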"}, "[1]": {"target": "T2, androgen receptor (AR-LBD) (Rattus norvegicus, UniProt P15207)", "T2 construct": "5 μL of 2×AR-LBD/Fluoromone AL Red Complex contained in the kit; purchased Invitrogen", "T2 sequence (P15207 651-882 limits assumed)": "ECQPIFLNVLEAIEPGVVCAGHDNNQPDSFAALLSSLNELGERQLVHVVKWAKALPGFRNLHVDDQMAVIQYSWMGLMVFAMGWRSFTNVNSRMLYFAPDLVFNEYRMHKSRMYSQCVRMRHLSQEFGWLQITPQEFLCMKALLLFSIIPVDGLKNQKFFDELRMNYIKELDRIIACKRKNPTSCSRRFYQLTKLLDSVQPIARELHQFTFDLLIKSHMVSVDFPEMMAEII", "experiment": "Evaluation of androgen receptor affinity (PolarScreen Androgen Receptor Competitor Assay Kit, Red; fluorescence polarization)", "conditions": "22° C. for 5 hours, relative to binding rate of 1 μM DHT, read-out: AR affinity (pEC50) (converted)", "procedure,_shortened": "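FP competition: compound + AR-LBD/Fluoromone AL Red tracer complex, 22° C, 5 h. Reference 1 μM DHT binding rate; pEC50 by 4-parameter fit.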"}}}
{"smiles": "Cc1sc(N(Cc2ccc(OCC(F)(F)F)cc2)c2ccc(C#N)cc2)nc1C(=O)NS(C)(=O)=O", "note": "[Compound 580, 2-[4-cyano-N-[[4-(2,2,2-trifluoroethoxy)phenyl]methyl]anilino]-5-methyl-N-methylsulfonyl-thiazole-4-carboxamide]", "values": [{"measurement": "EC50", "setting": "human androgen receptor", "value": 631, "unit": "nM"}, {"measurement": "EC50", "setting": "[1]", "value": 25.1, "unit": "nM"}]}
{"smiles": "Cc1sc(N(Cc2ccc(OC3CCCC3)cc2)c2ccc(C#N)cc2)nc1C(=O)NS(C)(=O)=O", "note": "[Compound 581, 2-[4-cyano-N-[[4-(cyclopentoxy)phenyl]methyl]anilino]-5-methyl-N-methylsulfonyl-thiazole-4-carboxamide]", "values": [{"measurement": "EC50", "setting": "human androgen receptor", "value": 501, "unit": "nM"}, {"measurement": "EC50", "setting": "[1]", "value": 25.1, "unit": "nM"}]}
{"smiles": "COCCCOc1ccc(CN(c2ccc(C#N)cc2)c2nc(C(=O)NS(C)(=O)=O)c(C)s2)cc1", "note": "[Compound 582, 2-[4-cyano-N-[[4-(3-methoxypropoxy)phenyl]methyl]anilino]-5-methyl-N-methylsulfonyl-thiazole-4-carboxamide]", "values": [{"measurement": "EC50", "setting": "human androgen receptor", "value": 794, "unit": "nM"}, {"measurement": "EC50", "setting": "[1]", "value": 39.8, "unit": "nM"}]}
{"smiles": "COC[C@@H](C)Oc1ccc(CN(c2ccc(C#N)cc2)c2nc(C(=O)NS(C)(=O)=O)c(C)s2)cc1", "note": "[Compound 583, 2-[4-cyano-N-[[4-[(1R)-2-methoxy-1-methyl-ethoxy]phenyl]methyl]anilino]-5-methyl-N-methylsulfonyl-thiazole-4-carboxamide]", "values": [{"measurement": "EC50", "setting": "human androgen receptor", "value": 2000, "unit": "nM"}, {"measurement": "EC50", "setting": "[1]", "value": 39.8, "unit": "nM"}]}
{"smiles": "COC[C@H](C)Oc1ccc(CN(c2ccc(C#N)cc2)c2nc(C(=O)NS(C)(=O)=O)c(C)s2)cc1", "note": "[Compound 584, 2-[4-cyano-N-[[4-[(1S)-2-methoxy-1-methyl-ethoxy]phenyl]methyl]anilino]-5-methyl-N-methylsulfonyl-thiazole-4-carboxamide]", "values": [{"measurement": "EC50", "setting": "human androgen receptor", "value": 3160, "unit": "nM"}, {"measurement": "EC50", "setting": "[1]", "value": 79.4, "unit": "nM"}]}
{"smiles": "Cc1sc(N(Cc2cccc(OC(C)C)c2)c2ccc(C#N)cc2)nc1C(=O)NS(C)(=O)=O", "note": "[Compound 585, 2-[4-cyano-N-[(3-isopropoxyphenyl)methyl]anilino]-5-methyl-N-methylsulfonyl-thiazole-4-carboxamide]", "values": [{"measurement": "EC50", "setting": "human androgen receptor", "value": 501, "unit": "nM"}, {"measurement": "EC50", "setting": "[1]", "value": 79.4, "unit": "nM"}]}
{"smiles": "Cc1sc(N(Cc2cccc(OCC(C)C)c2)c2ccc(C#N)cc2)nc1C(=O)NS(C)(=O)=O", "note": "[Compound 586, 2-[4-cyano-N-[(3-isobutoxyphenyl)methyl]anilino]-5-methyl-N-methylsulfonyl-thiazole-4-carboxamide]", "values": [{"measurement": "EC50", "setting": "human androgen receptor", "value": 7940, "unit": "nM"}, {"measurement": "EC50", "setting": "[1]", "value": 79.4, "unit": "nM"}]}
{"smiles": "Cc1sc(N(Cc2ccc(C3CC3)cc2)c2ccc(C#N)cc2)nc1C(=O)NS(C)(=O)=O", "note": "[Compound 588, 2-[4-cyano-N-[(4-cyclopropylphenyl)methyl]anilino]-5-methyl-N-methylsulfonyl-thiazole-4-carboxamide]", "values": [{"measurement": "EC50", "setting": "human androgen receptor", "value": 200, "unit": "nM"}, {"measurement": "EC50", "setting": "[1]", "value": 31.6, "unit": "nM"}]}
{"smiles": "Cc1sc(N(Cc2ccc(N3CCCC3=O)cc2)c2ccc(C#N)cc2)nc1C(=O)NS(C)(=O)=O", "note": "[Compound 589, 2-[4-cyano-N-[[4-(2-oxopyrrolidin-1-yl)phenyl]methyl]anilino]-5-methyl-N-methylsulfonyl-thiazole-4-carboxamide]", "values": [{"measurement": "EC50", "setting": "human androgen receptor", "value": "> 10000", "unit": "nM"}, {"measurement": "EC50", "setting": "[1]", "value": 1000, "unit": "nM"}]}
{"smiles": "Cc1sc(N(Cc2ccc(-c3ccccc3F)cc2)c2ccc(C#N)cc2)nc1C(=O)NS(C)(=O)=O", "note": "[Compound 590, 2-[4-cyano-N-[[4-(2-fluorophenyl)phenyl]methyl]anilino]-5-methyl-N-methylsulfonyl-thiazole-4-carboxamide]", "values": [{"measurement": "EC50", "setting": "human androgen receptor", "value": 158, "unit": "nM"}, {"measurement": "EC50", "setting": "[1]", "value": 31.6, "unit": "nM"}]}
{"smiles": "Cc1sc(N(Cc2ccc(-c3ccccc3F)nc2)c2ccc(C#N)cc2)nc1C(=O)NS(C)(=O)=O", "note": "[Compound 591, 2-[4-cyano-N-[[6-(2-fluorophenyl)-3-pyridyl]methyl]anilino]-5-methyl-N-methylsulfonyl-thiazole-4-carboxamide]", "values": [{"measurement": "EC50", "setting": "human androgen receptor", "value": 794, "unit": "nM"}, {"measurement": "EC50", "setting": "[1]", "value": 158, "unit": "nM"}]}
{"smiles": "Cc1sc(N(Cc2ccc(-c3ccc(F)cc3)nc2)c2ccc(C#N)cc2)nc1C(=O)NS(C)(=O)=O", "note": "[Compound 592, 2-[4-cyano-N-[[6-(4-fluorophenyl)-3-pyridyl]methyl]anilino]-5-methyl-N-methylsulfonyl-thiazole-4-carboxamide]", "values": [{"measurement": "EC50", "setting": "human androgen receptor", "value": 794, "unit": "nM"}, {"measurement": "EC50", "setting": "[1]", "value": 100, "unit": "nM"}]}
{"smiles": "Cc1sc(N(Cc2ccc(C3CC3)nc2)c2ccc(C#N)cc2)nc1C(=O)NS(C)(=O)=O", "note": "[Compound 593, 2-[4-cyano-N-[(6-cyclopropyl-3-pyridyl)methyl]anilino]-5-methyl-N-methylsulfonyl-thiazole-4-carboxamide]", "values": [{"measurement": "EC50", "setting": "human androgen receptor", "value": 200, "unit": "nM"}, {"measurement": "EC50", "setting": "[1]", "value": 251, "unit": "nM"}]}
{"smiles": "Cc1sc(N(Cc2ccc(-c3ccccc3F)cn2)c2ccc(C#N)cc2)nc1C(=O)NS(C)(=O)=O", "note": "[Compound 594, 2-[4-cyano-N-[[5-(2-fluorophenyl)-2-pyridyl]methyl]anilino]-5-methyl-N-methylsulfonyl-thiazole-4-carboxamide]", "values": [{"measurement": "EC50", "setting": "human androgen receptor", "value": 1580, "unit": "nM"}, {"measurement": "EC50", "setting": "[1]", "value": 79.4, "unit": "nM"}]}
{"smiles": "Cc1sc(N(Cc2ccc(-c3ccc(F)cc3)cn2)c2ccc(C#N)cc2)nc1C(=O)NS(C)(=O)=O", "note": "[Compound 595, 2-[4-cyano-N-[[5-(4-fluorophenyl)-2-pyridyl]methyl]anilino]-5-methyl-N-methylsulfonyl-thiazole-4-carboxamide]", "values": [{"measurement": "EC50", "setting": "human androgen receptor", "value": 1260, "unit": "nM"}, {"measurement": "EC50", "setting": "[1]", "value": 100, "unit": "nM"}]}
{"smiles": "Cc1sc(N(Cc2ccc(-c3ccc(F)cn3)nc2)c2ccc(C#N)cc2)nc1C(=O)NS(C)(=O)=O", "note": "[Compound 596, 2-[4-cyano-N-[[6-(5-fluoro-2-pyridyl)-3-pyridyl]methyl]anilino]-5-methyl-N-methylsulfonyl-thiazole-4-carboxamide]", "values": [{"measurement": "EC50", "setting": "human androgen receptor", "value": 3980, "unit": "nM"}, {"measurement": "EC50", "setting": "[1]", "value": 316, "unit": "nM"}]}
{"smiles": "CS(=O)(=O)NC(=O)c1csc(N(Cc2ccccc2)c2ccc(C#N)cc2)n1", "note": "[Compound 597, 2-(N-benzyl-4-cyano-anilino)-N-methylsulfonyl-thiazole-4-carboxamide]", "values": [{"measurement": "EC50", "setting": "human androgen receptor", "value": 1000, "unit": "nM"}, {"measurement": "EC50", "setting": "[1]", "value": 398, "unit": "nM"}]}
{"smiles": "Cc1oc(N(Cc2ccccc2)c2ccc(C#N)cc2)nc1C(=O)NS(C)(=O)=O", "note": "[Compound 598, 2-(N-benzyl-4-cyano-anilino)-5-methyl-N-methylsulfonyl-oxazole-4-carboxamide]", "values": [{"measurement": "EC50", "setting": "human androgen receptor", "value": 2000, "unit": "nM"}, {"measurement": "EC50", "setting": "[1]", "value": 251, "unit": "nM"}]}
{"smiles": "CCc1sc(N(Cc2ccccc2)c2ccc(C#N)cc2)nc1C(=O)NS(C)(=O)=O", "note": "[Compound 599, 2-(N-benzyl-4-cyano-anilino)-5-ethyl-N-methylsulfonyl-thiazole-4-carboxamide]", "values": [{"measurement": "EC50", "setting": "human androgen receptor", "value": 79.4, "unit": "nM"}, {"measurement": "EC50", "setting": "[1]", "value": 63.1, "unit": "nM"}]}
{"smiles": "CC(C)c1sc(N(Cc2ccccc2)c2ccc(C#N)cc2)nc1C(=O)NS(C)(=O)=O", "note": "[Compound 600, 2-(N-benzyl-4-cyano-anilino)-5-isopropyl-N-methylsulfonyl-thiazole-4-carboxamide]", "values": [{"measurement": "EC50", "setting": "human androgen receptor", "value": "> 10000", "unit": "nM"}, {"measurement": "EC50", "setting": "[1]", "value": 100, "unit": "nM"}]}
{"smiles": "CS(=O)(=O)NC(=O)c1nc(N(Cc2ccccc2)c2ccc(C#N)cc2)sc1Br", "note": "[Compound 603, 2-(N-benzyl-4-cyano-anilino)-5-bromo-N-methylsulfonyl-thiazole-4-carboxamide]", "values": [{"measurement": "EC50", "setting": "human androgen receptor", "value": 31.6, "unit": "nM"}, {"measurement": "EC50", "setting": "[1]", "value": 50.1, "unit": "nM"}]}
{"smiles": "Cc1oc(N(Cc2ccc(OC(F)(F)F)cc2)c2ccc(C#N)cc2)nc1C(=O)NS(C)(=O)=O", "note": "[Compound 607, 2-[4-cyano-N-[[4-(trifluoromethoxy)phenyl]methyl]anilino]-5-methyl-N-methylsulfonyl-oxazole-4-carboxamide]", "values": [{"measurement": "EC50", "setting": "human androgen receptor", "value": 5010, "unit": "nM"}, {"measurement": "EC50", "setting": "[1]", "value": 39.8, "unit": "nM"}]}
{"smiles": "Cc1oc(N(Cc2ccc(Cl)c(Cl)c2)c2ccc(C#N)cc2)nc1C(=O)NS(C)(=O)=O", "note": "[Compound 608, 2-[4-cyano-N-[(3,4-dichlorophenyl)methyl]anilino]-5-methyl-N-methylsulfonyl-oxazole-4-carboxamide]", "values": [{"measurement": "EC50", "setting": "human androgen receptor", "value": 316, "unit": "nM"}, {"measurement": "EC50", "setting": "[1]", "value": 31.6, "unit": "nM"}]}
